US12187713B2, “Immunomodulators, compositions and methods thereof” (Betta Pharmaceuticals Co., Ltd, priority 2019, dated 2025)

Target: PD-1/PD-L1 (Homo sapiens (Human), UniProt Q9NZQ7)
Experiment: PD-1/PD-L1 Binding Assay (Alphascreen)
Details: numeric values
Experimental: PD-1/PD-L1 Binding Assay (Alphascreen)
The assays were conducted in a standard black 384-well polystyrene plate with a final volume of 20 μL. Inhibitors were first serially diluted in DMSO and then added to the plate wells before the addition of other reaction components. The final concentration of DMSO in the assay was […]. Add 100 nL/well of compound to the 384 reaction plate (6008280, PerkinElmer) with Echo and centrifuge at 1000 rpm for 1 minute. Add 5 μL/well 4×PD-L1 solutions to the 384 reaction plate, centrifuge at 1000 rpm for 1 minute, and add 5 μL/well 4×PD-1 solutions, centrifuge at 1000 rpm for 1 minute, and incubate at 25° C. for 15 minutes. The concentrations of the compounds were 300, 100, 33.33, 11.11, 3.70, 1.23, 0.41, 0.137, 0.046, 0.015, 0 nM, respectively. Add 10 μL/well 2× Anti-6×His AlphaLISA Acceptor beads and Streptavidin Donor beads solution (PerkinElmer-AL356F) to the above 384 reaction plate, centrifuge at 1000 rpm for 1 minute, and incubate at 25° C. in the dark for 120 minutes. Read the AlphaLISA signal value using the Envision Reader. IC50 determination was performed by fitting the curve of percent control activity versus the log of the inhibitor concentration using the GraphPad Prism 8.0 software.

Chain of PD-1/PD-L1 (Q9NZQ7 19-238): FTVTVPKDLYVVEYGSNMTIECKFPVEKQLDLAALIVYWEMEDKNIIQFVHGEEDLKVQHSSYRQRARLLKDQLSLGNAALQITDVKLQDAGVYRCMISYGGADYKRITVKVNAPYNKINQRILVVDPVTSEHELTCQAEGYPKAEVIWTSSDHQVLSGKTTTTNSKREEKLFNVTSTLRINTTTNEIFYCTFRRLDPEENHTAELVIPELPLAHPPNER

**Q.** Cc1c(-c2nc3cc(CN4CC5(C4)CS(=O)(=O)C5)c(OC(F)F)cc3o2)cccc1-c1cccc(-c2nc3cc(CN4CCC[C@H]4C(=O)O)c(OC(F)F)cc3o2)c1C [Example 54, ((6-(difluoromethoxy)-2-(3′-(6-(difluoromethoxy)-5-((2,2-dioxido-2-thia-6-azaspiro [3.3]heptan-6-yl)methyl)benzo[d]oxazol-2-yl)-2,2′-dimethyl-[1,1′-biphenyl]-3-yl)benzo[d]oxazol-5-yl)methyl)-L-proline] was tested. Which IC50 did it give?
**A.** 6.3 nM

**Q.** Cc1c(-c2nc3cc(CN[C@H]4CCC[C@H]4O)c(OC(F)F)cc3o2)cccc1-c1cccc(-c2nc3cc(CN4CCC[C@H]4C(=O)O)c(OC(F)F)cc3o2)c1C [Example 27, ((6-(difluoromethoxy)-2-(3′-(6-(difluoromethoxy)-5-((((1S,2R)-2-hydroxycyclopentyl)amino)methyl)benzo[d]oxazol-2-yl)-2,2′-dimethyl-[1,1′-biphenyl]-3-yl)benzo[d]oxazol-5-yl)methyl)-L-proline] was tested. Which IC50 did it give?
**A.** 0.66 nM

**Q.** Which IC50 does the source give for Cc1c(-c2nc3cc(CN4CCC[C@H]4C(=O)O)c(OC(F)F)cc3o2)cccc1-c1cccc(-c2nc3cc(CN4CCCC4)c(F)c(F)c3o2)c1C#N [Example 118, ((2-(2′-cyano-3′-(6,7-difluoro-5-(pyrrolidin-1-ylmethyl)benzo[d]oxazol-2-yl)-2-methyl-[1,1′-biphenyl]-3-yl)-6-(difluoromethoxy)benzo[d]oxazol-5-yl)methyl)-L-proline] here?
**A.** 78 nM

**Q.** For Cc1c(-c2nc3c(o2)CCN(CC(=O)O)C3)cccc1-c1cccc(-c2nc3cc(CN4CCC[C@H]4C(=O)O)c(OC(F)F)cc3o2)c1C [Example 184, ((2-(3′-(5-(carboxymethyl)-4,5,6,7-tetrahydrooxazolo[4,5-c]pyridin-2-yl)-2,2′-dimethyl-[1,1′-biphenyl]-3-yl)-6-(difluoromethoxy)benzo[d]oxazol-5-yl)methyl)-L-proline], which IC50 is on record?
**A.** 2.3 nM

Same assay, conditions: range symbols

**Q.** With Cc1c(-c2nc3cc(CN4CCC[C@H]4C(=O)O)c(OC(F)F)cc3o2)cccc1-c1cccc(-c2nc3cc(CN4CC(CO)C4)cc(C#N)c3o2)c1C [Example 137, ((2-(3′-(7-cyano-5-((3-(hydroxymethyl)azetidin-1-yl)methyl)benzo[d]oxazol-2-yl)-2,2′-dimethyl-[1,1′-biphenyl]-3-yl)-6-(difluoromethoxy)benzo[d]oxazol-5-yl)methyl)-L-proline] as the molecule, how does the IC50 read?
**A.** 0.1 to 5 nM

**Q.** Which IC50 does the source give for Cc1c(-c2cnc(N3CCN(C)CC3)nc2)cccc1-c1cccc(-c2nc3cc(CN4CCC[C@H]4C(=O)O)c(OC(F)F)cc3o2)c1C [Example 282, ((6-(difluoromethoxy)-2-(2,2′-dimethyl-3′-(2-(4-methylpiperazin-1-yl)pyrimidin-5-yl)-[1,1′-biphenyl]-3-yl)benzo[d]oxazol-5-yl)methyl)-L-proline] here?
**A.** 5 to 50 nM

**Q.** Cc1c(-c2nc3cc(CN(C)[C@@H]4CCC[C@@H]4O)c(OC(F)F)cc3o2)cccc1-c1cccc(-c2nc3cc(CN4CCC[C@@H]4C(=O)O)c(OC(F)F)cc3o2)c1C [Example 26, ((6-(difluoromethoxy)-2-(3′-(6-(difluoromethoxy)-5-((((1R,2S)-2-hydroxycyclopentyl) (methyl)amino)methyl)benzo[d]oxazol-2-yl)-2,2′-dimethyl-[1,1′-biphenyl]-3-yl)benzo[d]oxazol-5-yl)methyl)-D-proline] was tested. Which IC50 did it give?
**A.** 0.1 to 5 nM

**Q.** Which IC50 does the source give for Cc1c(-c2nc3cc(CN4CCC[C@H]4C(=O)O)c(OC(F)F)cc3o2)cccc1-c1cccc(-c2nc3cc(CN4CC(C)C(C)C4)cc(C(F)(F)F)c3o2)c1C (stereo partly drawn) [Example 84, ((6-(difluoromethoxy)-2-(3′-(5-((3,4-dimethylpyrrolidin-1-yl)methyl)-7-(trifluoromethyl)benzo[d]oxazol-2-yl)-2,2′-dimethyl-[1,1′-biphenyl]-3-yl)benzo[d]oxazol-5-yl)methyl)-L-proline] here?
**A.** 0.1 to 5 nM
